Assay results: patent US20250340563A1, “FUSED PYRIDAZINE DERIVATIVES AS NLRP3 INHIBITORS” (Takeda Pharmaceutical Company Limited, priority 2022, published 2025)

Molecular target: NLRP3 inflammasome (Homo sapiens, UniProt Q96P20)
Test: IL-1β assay in IFN-γ-differentiated, LPS-primed, ATP-activated THP-1 cells (ELISA)
Format: cell-based
Details: 50 ng/mL LPS priming, 2.5 mM ATP activation, 2 hours
Procedure: Monocytic THP-1 cells (ATCC: TIB-202) are maintained in accordance with the provider's instructions in RPMI media (Life Technologies, Cat #A10491-01); RPMI is supplemented with 10% heat inactivated fetal bovine serum (Hyclone Cat #SH30396.03). The cells are differentiated into macrophages by the addition of 25 ng/mL IFN-7 (PeproTech, Cat #300-02-100UG) for 24 hours at 37° C./5% CO2. Media is exchanged with fresh media with no FBS, and the cells are treated with 50 ng/mL LPS (priming step) for 24 hours at 37° C./5% CO2 (LPS-EK: Invivogen, Cat #tlrl-peklps). Media is exchanged with fresh media with no FBS. The cells are plated at 40,000 cells per well in 384-well flat-bottom cell culture plates (Costar 3764) containing compounds (added in 1:1000) in a 1:3.16 serial dilution series in DMSO and are incubated for 30 minutes at 37° C./5% CO2. The NLRP3 inflammasome is activated with the addition of 2.5 mM ATP (Sigma Cat #A3377) and the cells are incubated for 2 hours at 37° C./5% CO2. At the end of the incubation period, 40 μL supernatant is removed, and […] are monitored using an ELISA (Human […], R&D systems, Cat #DY201) in accordance with the manufacturer's instructions.
The IC50 values are calculated from a plot of percentage of inhibition versus the inhibitor concentration by a logistics curve fit according to: Y=[Bottom+(Top−Bottom)]/(1+10^[(Log IC50−X)·Hill Slope], where Y is the % inhibition at the inhibitor concentration, X, “Bottom” is the lowest inhibition value, i.e. 0%, “Top” is the maximum inhibition value, i.e. 100%, and the “Hill Slope” describes the slope of the sigmoidal curve between the “Bottom” and “Top” values. The curve fitting was conducted with internally developed software.

Chain of NLRP3 inflammasome (Q96P20 whole entry): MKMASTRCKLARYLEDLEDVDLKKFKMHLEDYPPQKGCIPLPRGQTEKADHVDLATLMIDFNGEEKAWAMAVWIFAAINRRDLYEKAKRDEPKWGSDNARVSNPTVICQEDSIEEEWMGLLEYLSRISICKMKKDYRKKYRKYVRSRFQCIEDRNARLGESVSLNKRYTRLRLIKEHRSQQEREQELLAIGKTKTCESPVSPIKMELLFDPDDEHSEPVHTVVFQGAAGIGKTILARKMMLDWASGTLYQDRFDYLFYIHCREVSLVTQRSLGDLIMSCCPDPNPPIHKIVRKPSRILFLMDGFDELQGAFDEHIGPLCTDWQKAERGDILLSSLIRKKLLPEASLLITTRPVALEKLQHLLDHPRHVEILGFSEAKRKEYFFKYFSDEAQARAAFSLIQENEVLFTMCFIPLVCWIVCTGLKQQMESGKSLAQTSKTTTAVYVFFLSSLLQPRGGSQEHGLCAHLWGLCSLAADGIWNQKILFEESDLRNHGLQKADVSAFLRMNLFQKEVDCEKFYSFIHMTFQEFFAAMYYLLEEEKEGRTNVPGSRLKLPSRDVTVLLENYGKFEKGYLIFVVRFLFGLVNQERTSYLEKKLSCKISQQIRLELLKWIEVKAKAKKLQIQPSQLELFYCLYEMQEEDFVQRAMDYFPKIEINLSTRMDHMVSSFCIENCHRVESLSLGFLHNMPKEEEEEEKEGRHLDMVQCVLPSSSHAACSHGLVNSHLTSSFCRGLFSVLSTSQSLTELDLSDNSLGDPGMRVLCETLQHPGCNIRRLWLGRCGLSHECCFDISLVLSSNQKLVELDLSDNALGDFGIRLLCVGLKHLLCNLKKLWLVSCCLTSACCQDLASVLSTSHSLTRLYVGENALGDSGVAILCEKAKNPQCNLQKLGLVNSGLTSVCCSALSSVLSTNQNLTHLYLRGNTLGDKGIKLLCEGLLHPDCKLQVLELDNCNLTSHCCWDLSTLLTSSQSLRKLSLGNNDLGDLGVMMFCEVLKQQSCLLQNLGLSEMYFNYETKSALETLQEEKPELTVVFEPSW

Row | SMILES | IC50 [nM]
1 | O[C@]1(C(F)(F)F)CCC[C@@H](Nc2nnc(-c3ccc(Cl)cc3)c3ccccc23)C1 (racemic) [Example 114] | 1230
2 | CN1CCCC(Nc2nnc(-c3ccc(C(F)F)nc3)c3ccccc23)C1 (stereo not drawn) [Example 2, 4-(6-(difluoromethyl)pyridin-3-yl)-N-(1-methylpiperidin-3-yl)phthalazin-1-amine] | 5250
3 | CC1(c2ccc(-c3nnc(Nc4cccc(O)c4)c4ccccc34)cc2)CC1 [Example 3, 3-((4-(4-(1-methylcyclopropyl)phenyl)phthalazin-1-yl)amino)phenol] | 1120
4 | Oc1cccc(Nc2nnc(-c3ccc(C4(C(F)(F)F)CC4)cc3)c3ccccc23)c1 [Example 4, 3-((4-(4-(1-(trifluoromethyl)cyclopropyl)phenyl)phthalazin-1-yl)amino)phenol] | 1410
5 | CC(C)(C)c1ccc(-c2nnc(Nc3cccc(O)c3)c3ccccc23)cc1 [Example 5, 3-((4-(4-(tert-butyl)phenyl)phthalazin-1-yl)amino)phenol] | 1440
6 | Oc1cccc(Nc2nnc(-c3cccc(C4CCC4)c3)c3ccccc23)c1 [Example 6, 3-((4-(3-cyclobutylphenyl)phthalazin-1-yl)amino)phenol] | 2880
7 | CC(C)c1ccc(-c2nnc(Nc3cccc(O)c3)c3ccccc23)cc1 [Example 7, 3-((4-(4-isopropylphenyl)phthalazin-1-yl)amino)phenol] | 977
8 | Oc1cccc(Nc2nnc(-c3ccc(C4CC4)cc3F)c3ccccc23)c1 [Example 8, 3-((4-(4-cyclopropyl-2-fluorophenyl)phthalazin-1-yl)amino)phenol] | 891
9 | CC(C)(C)c1ccc(-c2nnc(Nc3cccc(O)c3)c3ccccc23)cn1 [Example 9, 3-((4-(6-(tert-butyl)pyridin-3-yl)phthalazin-1-yl)amino)phenol] | 1660
10 | Oc1cccc(Nc2nnc(-c3cccc(C4CC4)c3)c3ccccc23)c1 [Example 10, 3-((4-(3-cyclopropylphenyl)phthalazin-1-yl)amino)phenol] | 437
11 | CN1CCCC(Nc2nnc(-c3ccc(F)cc3)c3ccccc23)C1 (stereo not drawn) [Example 11, 4-(4-fluorophenyl)-N-(1-methylpiperidin-3-yl)phthalazin-1-amine] | 933
12 | Cc1ccccc1-c1nnc(NC2CCCN(C)C2)c2ccccc12 (stereo not drawn) [Example 12, N-(1-methylpiperidin-3-yl)-4-(o-tolyl)phthalazin-1-amine] | 2570
13 | CN1CCCC(Nc2nnc(-c3ccc(C(F)(F)F)cc3)c3ccccc23)C1 (stereo not drawn) [Example 13, N-(1-methylpiperidin-3-yl)-4-(4-(trifluoromethyl)phenyl)phthalazin-1-amine] | 65
14 | CN1CCCC(Nc2nnc(-c3ccccc3Cl)c3ccccc23)C1 (stereo not drawn) [Example 14, 4-(2-chlorophenyl)-N-(1-methylpiperidin-3-yl)phthalazin-1-amine] | 2950
15 | Cc1ccc(-c2nnc(NC3CCCN(C)C3)c3ccccc23)cc1 (stereo not drawn) [Example 15, N-(1-methylpiperidin-3-yl)-4-(p-tolyl)phthalazin-1-amine] | 115
16 | CN1CCCC(Nc2nnc(-c3cccc(Cl)c3)c3ccccc23)C1 (stereo not drawn) [Example 17, 4-(3-chlorophenyl)-N-(1-methylpiperidin-3-yl)phthalazin-1-amine] | 4470
17 | Cc1cccc(-c2nnc(NC3CCCN(C)C3)c3ccccc23)c1 (stereo not drawn) [Example 18, N-(1-methylpiperidin-3-yl)-4-(m-tolyl)phthalazin-1-amine] | 1150
18 | CN1CCCC(Nc2nnc(-c3ccc(C(C)(C)C)nc3)c3ccccc23)C1 (stereo not drawn) [Example 20, 4-(6-(tert-butyl)pyridin-3-yl)-N-(1-methylpiperidin-3-yl)phthalazin-1-amine] | 626
19 | CN1CCCC(Nc2nnc(-c3ccc(C(F)(F)F)nc3)c3ccccc23)C1 (stereo not drawn) [Example 22, N-(1-methylpiperidin-3-yl)-4-(6-(trifluoromethyl)pyridin-3-yl)phthalazin-1-amine] | 897
20 | CN1CCC[C@@H](Nc2nnc(-c3ccc(O)cc3)c3ccncc23)C1 [Example 23, (R)-4-(4-((1-methylpiperidin-3-yl)amino)pyrido[3,4-d]pyridazin-1-yl)phenol] | 10000

Row | SMILES | IC50 [nM]
21 | CN1CCC[C@@H](Nc2nnc(-c3ccc(OC(F)(F)F)c(C#N)c3)c3ccncc23)C1 [Example 24, (R)-5-(4-((1-methylpiperidin-3-yl)amino)pyrido[3,4-d]pyridazin-1-yl)-2-(trifluoromethoxy)benzonitrile] | 157
22 | COc1ccc(-c2nnc(N[C@@H]3CCCN(C)C3)c3cnccc23)cc1F [Example 25, (R)-1-(3-fluoro-4-methoxyphenyl)-N-(1-methylpiperidin-3-yl)pyrido[3,4-d]pyridazin-4-amine] | 199
23 | CN1CCC[C@@H](Nc2nnc(-c3ccc4c(c3)OCCO4)c3ccncc23)C1 [Example 26, (R)-1-(2,3-dihydrobenzo[b][1,4]dioxin-6-yl)-N-(1-methylpiperidin-3-yl)pyrido[3,4-d]pyridazin-4-amine] | 603
24 | CN1CCC[C@@H](Nc2nnc(-c3ccc(OC(F)F)cc3)c3ccncc23)C1 [Example 27, (R)-1-(4-(difluoromethoxy)phenyl)-N-(1-methylpiperidin-3-yl)pyrido[3,4-d]pyridazin-4-amine] | 38
25 | Cc1cc(Cl)ccc1-c1nnc(N[C@@H]2CCCN(C)C2)c2cnccc12 [Example 31, (R)-1-(4-chloro-2-methylphenyl)-N-(1-methylpiperidin-3-yl)pyrido[3,4-d]pyridazin-4-amine] | 34
26 | CN1CCC[C@@H](Nc2nnc(-c3ccc(OC(F)(F)F)cc3)c3ccncc23)C1 [Example 32, (R)—N-(1-methylpiperidin-3-yl)-1-(4-(trifluoromethoxy)phenyl)pyrido[3,4-d]pyridazin-4-amine] | 36
27 | CN1CCC[C@@H](Nc2nnc(-c3ccc(C(F)(F)F)cc3F)c3ccncc23)C1 [Example 33, (R)-1-(2-fluoro-4-(trifluoromethyl)phenyl)-N-(1-methylpiperidin-3-yl)pyrido[3,4-d]pyridazin-4-amine] | 33
28 | CN1CCC[C@@H](Nc2nnc(-c3ccc(C(F)(F)F)cc3)c3ccncc23)C1 [Example 34, (R)—N-(1-methylpiperidin-3-yl)-1-(4-(trifluoromethyl)phenyl)pyrido[3,4-d]pyridazin-4-amine] | 28
29 | CN1CCC[C@@H](Nc2nnc(-c3ccc(C(F)F)cc3)c3ccncc23)C1 [Example 37, (R)-1-(4-(difluoromethyl)phenyl)-N-(1-methylpiperidin-3-yl)pyrido[3,4-d]pyridazin-4-amine] | 77
30 | Cc1ccc(-c2nnc(Nc3cccc(O)c3)c3ccccc23)cc1 [Example 38, 3-((4-(p-tolyl)phthalazin-1-yl)amino)phenol] | 1120
31 | CN1CCCC(Nc2nnc(-c3ccccc3)c3ccccc23)C1 (stereo not drawn) [Example 42, N-(1-methylpiperidin-3-yl)-4-phenylphthalazin-1-amine] | 1150
32 | COc1ccc(-c2nnc(N(C)C3CCCN(C)C3)c3ccccc23)cc1 (stereo not drawn) [Example 45, 4-(4-methoxyphenyl)-N-methyl-N-(1-methylpiperidin-3-yl)phthalazin-1-amine] | 4120
33 | COc1cc(Cl)ccc1-c1nnc(NC2CCCN(C)C2)c2cnccc12 (stereo not drawn) [Example 47, 1-(4-chloro-2-methoxyphenyl)-N-(1-methylpiperidin-3-yl)pyrido[3,4-d]pyridazin-4-amine] | 692
34 | COc1cc(Cl)ccc1-c1nnc(NC2CCCN(C)C2)c2ccncc12 (stereo not drawn) [Example 48, 4-(4-chloro-2-methoxyphenyl)-N-(1-methylpiperidin-3-yl)pyrido[3,4-d]pyridazin-1-amine] | 3090
35 | Cc1cc(Cl)ccc1-c1nnc(NC2CCCN(C)C2)c2cnccc12 (stereo not drawn) [Example 49, 1-(4-chloro-2-methylphenyl)-N-(1-methylpiperidin-3-yl)pyrido[3,4-d]pyridazin-4-amine] | 288
36 | Cc1cc(Cl)ccc1-c1nnc(NC2CCCN(C)C2)c2ccncc12 (stereo not drawn) [Example 50, 4-(4-chloro-2-methylphenyl)-N-(1-methylpiperidin-3-yl)pyrido[3,4-d]pyridazin-1-amine] | 1320
37 | CN1CCCC(Nc2nnc(-c3ccc(Cl)cc3Cl)c3ccncc23)C1 (stereo not drawn) [Example 51, 1-(2,4-dichlorophenyl)-N-(1-methylpiperidin-3-yl)pyrido[3,4-d]pyridazin-4-amine] | 158
38 | CN1CCCC(Nc2nnc(-c3ccc(Cl)cc3Cl)c3cnccc23)C1 (stereo not drawn) [Example 52, 4-(2,4-dichlorophenyl)-N-(1-methylpiperidin-3-yl)pyrido[3,4-d]pyridazin-1-amine] | 2400
39 | COc1ccc(-c2nnc(N[C@@H]3CCCN(C)C3)c3ccccc23)c(F)c1 [Example 53, (R)-4-(2-fluoro-4-methoxyphenyl)-N-(1-methylpiperidin-3-yl)phthalazin-1-amine] | 40
